# PubChem BioAssay (NCI)
#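 Each compound was tested at five concentrations against cells in 96-well plates for 48 hours. TGI is the concentration that stops growth completely.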
# Key:
# Test in all cases: NCI-60 cell line screen, 48 h
# [1] = test system: K-562 leukemia
# [2] = test system: MDA-MB-435
# [3] = test system: ACHN renal
# [4] = test system: UACC-257 melanoma
# [5] = test system: TK-10 renal
# [6] = test system: HOP-62 NSCLC
# [7] = test system: SK-MEL-2 melanoma
# [8] = test system: SF-268 CNS
# [9] = test system: NCI-H226 lung
# [10] = test system: NCI/ADR-RES ovarian
# [11] = test system: NCI-H522 lung
# [12] = test system: OVCAR-4 ovarian
# [13] = test system: KM12 colon
# [14] = test system: SK-MEL-5 melanoma
# [15] = test system: SR leukemia
# [16] = test system: MCF7 breast
# [17] = test system: OVCAR-3 ovarian
# [18] = test system: MALME-3M melanoma
# [19] = test system: HL-60(TB) leukemia
# [20] = test system: SK-OV-3 ovarian
# [21] = test system: LOX IMVI melanoma
# [22] = test system: NCI-H460 lung
# [23] = test system: HOP-92 NSCLC
# [24] = test system: A549 NSCLC
# [25] = test system: HCT-15 colon
# [26] = test system: MOLT-4 leukemia
# [27] = test system: BT-549 breast
# [28] = test system: OVCAR-5 ovarian
# [29] = test system: RXF 393 renal
# [30] = test system: NCI-H23 lung
# [31] = test system: SN12C renal
# [32] = test system: HS 578T breast
# [33] = test system: HCC-2998 colon
# [34] = test system: HCT-116 colon
# [35] = test system: SNB-19 CNS
# [36] = test system: PC-3 prostate
# [37] = test system: UO-31 renal
# [38] = test system: SF-295 CNS
# [39] = test system: IGROV1 ovarian
# [40] = test system: OVCAR-8 ovarian
# [41] = test system: EKVX NSCLC
# [42] = test system: CAKI-1 renal
# [43] = test system: MDA-N
# [44] = test system: M14 melanoma
# [45] = test system: SW-620 colon
# [46] = test system: DU-145 prostate
# [47] = test system: A498 renal
# [48] = test system: 786-0 renal
# [49] = test system: UACC-62 melanoma
# [50] = test system: SK-MEL-28 melanoma
# [51] = test system: RPMI-8226 leukemia
# [52] = test system: T-47D breast
# [53] = test system: HT29 colon
# [54] = test system: MDA-MB-231 breast
# [55] = test system: CCRF-CEM leukemia
# [56] = test system: SNB-75 CNS
# [57] = test system: SF-539 CNS
# [58] = test system: COLO 205 colon
# [59] = test system: U251 CNS
compound,measurement,setting,value
CC(=O)Oc1ccc2[nH]c3c(C)c4cccc-4ccc3c2c1,TGI,[1],11.5 µM
same,TGI,[2],3.81 µM
same,TGI,[3],3.33 µM
same,TGI,[4],4.07 µM
same,TGI,[5],3.57 µM
same,TGI,[6],4.8 µM
same,TGI,[7],3.66 µM
same,TGI,[8],4.19 µM
same,TGI,[9],3.11 µM
same,TGI,[10],5.33 µM
same,TGI,[11],3.86 µM
same,TGI,[12],3.5 µM
same,TGI,[13],5.47 µM
same,TGI,[14],3.95 µM
same,TGI,[15],34.6 µM
same,TGI,[16],10.7 µM
same,TGI,[17],3.64 µM
same,TGI,[18],3.63 µM
same,TGI,[19],6.87 µM
same,TGI,[20],4.28 µM
same,TGI,[21],4.4 µM
same,TGI,[22],10.3 µM
same,TGI,[23],4.17 µM
same,TGI,[24],4.7 µM
same,TGI,[25],5 µM
same,TGI,[26],9.82 µM
same,TGI,[27],5.37 µM
same,TGI,[28],4.14 µM
same,TGI,[29],3.78 µM
same,TGI,[30],3.96 µM
same,TGI,[31],4.49 µM
same,TGI,[32],7.74 µM
same,TGI,[33],5.05 µM
same,TGI,[34],4.31 µM
same,TGI,[35],3.69 µM
same,TGI,[36],3.37 µM
same,TGI,[37],3.19 µM
same,TGI,[38],4.32 µM
same,TGI,[39],3.2 µM
same,TGI,[40],4.63 µM
same,TGI,[41],4.21 µM
same,TGI,[42],3.41 µM
same,TGI,[43],4.93 µM
same,TGI,[44],4.21 µM
same,TGI,[45],10.7 µM
same,TGI,[46],12.7 µM
same,TGI,[47],5.53 µM
same,TGI,[48],3.36 µM
same,TGI,[49],3.42 µM
same,TGI,[50],4.47 µM
same,TGI,[51],11 µM
same,TGI,[52],8.22 µM
same,TGI,[53],4.18 µM
Cc1c(S(=O)(=O)/N=C(\NN)Nc2ccc(Cl)cc2)sc2ccc(Cl)cc12,TGI,[1],> 100 µM
same,TGI,[3],30 µM
same,TGI,[4],33.8 µM
same,TGI,[5],31.8 µM
same,TGI,[6],36.3 µM
same,TGI,[7],30.5 µM
same,TGI,[8],33.8 µM
same,TGI,[9],41.6 µM
same,TGI,[54],32 µM
same,TGI,[10],40.8 µM
same,TGI,[11],32.5 µM
same,TGI,[12],30.1 µM
same,TGI,[13],30 µM
same,TGI,[14],33.4 µM
same,TGI,[15],65.1 µM
same,TGI,[16],30.2 µM
same,TGI,[17],32 µM
same,TGI,[18],39.1 µM
same,TGI,[19],90.8 µM
same,TGI,[20],35.9 µM
same,TGI,[21],35.1 µM
same,TGI,[22],34.8 µM
same,TGI,[23],31.4 µM
same,TGI,[24],31.6 µM
same,TGI,[25],34.4 µM
same,TGI,[26],59.8 µM
same,TGI,[27],30.9 µM
same,TGI,[28],27.9 µM
same,TGI,[29],23.6 µM
same,TGI,[30],35.6 µM
same,TGI,[55],> 100 µM
same,TGI,[31],30.9 µM
same,TGI,[32],59.1 µM
same,TGI,[34],26.4 µM
same,TGI,[35],38 µM
same,TGI,[36],29 µM
same,TGI,[56],28.4 µM
same,TGI,[37],33.1 µM
same,TGI,[38],33.6 µM
same,TGI,[57],31.5 µM
same,TGI,[39],30.4 µM
same,TGI,[40],34.7 µM
same,TGI,[41],27.2 µM
same,TGI,[42],34.4 µM
same,TGI,[58],33.4 µM
same,TGI,[43],29.1 µM
same,TGI,[44],34.8 µM
same,TGI,[45],71.2 µM
same,TGI,[59],30.4 µM
same,TGI,[46],30.9 µM
same,TGI,[47],29.5 µM
same,TGI,[48],31.5 µM
same,TGI,[49],27.6 µM
same,TGI,[50],44.1 µM
same,TGI,[51],> 100 µM
same,TGI,[52],24 µM
same,TGI,[53],30.7 µM
